From ChEMBL document CHEMBL1201862, “PubChem BioAssay data set” (2004)
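Exposure lasted 48 hours, with cells grown in 96-well plates and compounds tested at five concentrations. Abbreviation: GI50, concentration required for 50% inhibition of growth.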 Calls of active or inactive are those of the source. No stated cut-off is given here; in the data, active = GI50 up to about 1.1 µM and inactive = higher.

Columns and labels:
Assay in all cases: inhibition of tumour cell growth, NCI panel, 48 h
SR = test system: SR
HCT-116 = test system: HCT-116
KM12 = test system: KM12
SN12C = test system: SN12C
SK-MEL-2 = test system: SK-MEL-2
LOX IMVI = test system: LOX IMVI
COLO 205 = test system: COLO 205
CAKI-1 = test system: CAKI-1
RPMI-8226 = test system: RPMI-8226
NCI-H522 = test system: NCI-H522
UO-31 = test system: UO-31
UACC-62 = test system: UACC-62
Hs-578T = test system: Hs-578T
HT-29 = test system: HT-29
SK-OV-3 = test system: SK-OV-3
MDA-N = test system: MDA-N
NCI-H23 = test system: NCI-H23
OVCAR-4 = test system: OVCAR-4
HOP-92 = test system: HOP-92

Measured: GI50

CN(C(=O)Cc1ccc(Cl)c(Cl)c1)[C@H]1CCCC[C@@H]1[N+]1(C)CCCC1
inactive: SR > 100 µM | HCT-116 > 100 µM | KM12 > 100 µM | SN12C > 100 µM | SK-MEL-2 > 100 µM | LOX IMVI > 100 µM | COLO 205 > 100 µM | CAKI-1 > 100 µM | RPMI-8226 > 100 µM | NCI-H522 > 100 µM | UO-31 > 100 µM | UACC-62 > 100 µM | Hs-578T > 100 µM | HT-29 > 100 µM | SK-OV-3 > 100 µM | MDA-N > 100 µM | NCI-H23 > 100 µM | OVCAR-4 > 100 µM

N/C(=N\c1ccc(Cl)cc1)NS(=O)(=O)c1cc(Cl)c(Oc2ccc([N+](=O)[O-])cc2Cl)c(Cl)c1
inactive: SR 18.9 µM | HCT-116 16.7 µM | KM12 17.8 µM | SN12C 17.5 µM | SK-MEL-2 20.5 µM | LOX IMVI 16.1 µM | COLO 205 16.1 µM | CAKI-1 17.2 µM | NCI-H522 > 100 µM | UO-31 18.8 µM | UACC-62 12.2 µM | HOP-92 17.2 µM | Hs-578T > 100 µM | HT-29 20.4 µM | SK-OV-3 17.4 µM | MDA-N 18.2 µM | NCI-H23 16.8 µM | OVCAR-4 16 µM

CCC1OC2C(CC=C(C)C)=C3OC(C)(O)C(C)(CC)C(OC(=O)c4ccccc4)C3=C3OC(=O)C=C1C32 (centres undefined)
inactive: SR 59.8 µM | HCT-116 32.1 µM | KM12 39.9 µM | SN12C 27.7 µM | SK-MEL-2 22.8 µM | LOX IMVI 18.4 µM | COLO 205 18.1 µM | CAKI-1 36.6 µM | RPMI-8226 24.7 µM | NCI-H522 18.8 µM | UO-31 37.2 µM | UACC-62 30.5 µM | HOP-92 70 µM | Hs-578T 23.1 µM | HT-29 40.8 µM | SK-OV-3 56.4 µM | MDA-N 20.5 µM | NCI-H23 35.2 µM

CCC1(c2ccc(N3C(=O)c4cc(OC)c(OC)cc4C3=O)cc2)CCC(=O)NC1=O (centres undefined)
inactive: SR > 10 µM | HCT-116 > 10 µM | KM12 > 10 µM | SN12C > 10 µM | SK-MEL-2 > 10 µM | LOX IMVI > 10 µM | COLO 205 > 10 µM | CAKI-1 > 10 µM | RPMI-8226 > 10 µM | UO-31 > 10 µM | UACC-62 > 10 µM | HOP-92 > 10 µM | Hs-578T > 10 µM | HT-29 > 10 µM | SK-OV-3 > 10 µM | MDA-N > 10 µM | NCI-H23 > 10 µM | OVCAR-4 > 10 µM

CCCCC(=O)N/S(=N/C(=O)c1ccccc1)C(Cl)(Cl)Cl (centres undefined)
inactive: SR > 100 µM | HCT-116 > 100 µM | KM12 > 100 µM | SN12C > 100 µM | SK-MEL-2 > 100 µM | LOX IMVI > 100 µM | COLO 205 > 100 µM | RPMI-8226 > 100 µM | UO-31 > 100 µM | UACC-62 > 100 µM | HOP-92 > 100 µM | Hs-578T > 100 µM | HT-29 > 100 µM | SK-OV-3 > 100 µM | MDA-N > 100 µM | NCI-H23 > 100 µM | OVCAR-4 > 100 µM

CCOc1ccc(/N=N/C2C(=O)N(C(=O)CC(=O)Nc3ccc(C)cc3)N=C2C)cc1 (centres undefined)
inactive: SR 14 µM | HCT-116 12.4 µM | KM12 8.47 µM | SN12C 35.2 µM | SK-MEL-2 26.6 µM | LOX IMVI 14.6 µM | COLO 205 > 100 µM | CAKI-1 26.5 µM | UO-31 29.4 µM | UACC-62 16.7 µM | HOP-92 16.7 µM | Hs-578T 5.73 µM | HT-29 24 µM | MDA-N 2.7 µM | NCI-H23 26.5 µM | OVCAR-4 25.3 µM

CCC(C)[C@@H](NCc1ccccc1)[C@H](OCc1ccccc1)[C@@H]1COC(C)(C)O1 (some centres undefined)
inactive: SR 26.1 µM | HCT-116 13 µM | KM12 18.8 µM | SN12C 22.6 µM | SK-MEL-2 18.2 µM | LOX IMVI 18 µM | COLO 205 15.9 µM | RPMI-8226 15.8 µM | UO-31 17.3 µM | UACC-62 20.6 µM | HOP-92 10.4 µM | Hs-578T 21.1 µM | HT-29 10.7 µM | SK-OV-3 30.5 µM | MDA-N 32.1 µM | NCI-H23 18.8 µM | OVCAR-4 28.8 µM

Cc1cccc(CNNC(=O)c2cc[n+]([BH2-]C#N)cc2)c1
inactive: SR 32.3 µM | HCT-116 23.3 µM | KM12 22.6 µM | SK-MEL-2 34.9 µM | LOX IMVI 20.1 µM | COLO 205 16.5 µM | CAKI-1 32.4 µM | RPMI-8226 24.8 µM | UO-31 48.1 µM | UACC-62 62.7 µM | HOP-92 4.47 µM | Hs-578T 21.6 µM | HT-29 29.3 µM | SK-OV-3 43.6 µM | MDA-N 29.2 µM | NCI-H23 18.6 µM | OVCAR-4 42 µM
